Laboratory results as given in the NIST ThermoML archive (doi:10.1021/acs.jced.8b00201).

Test: xn = mol fraction of the nth substance listed
Details: 100 kPa, Liquid; for viscosity: Concentric cylinders viscometry; for mass density: Vibrating tube method

O=C1CCCCC1 [cyclohexanone] + CCCCCCCCCCO
Details | mass density, 293.15 K [kg/m3] | mass density, 298.15 K [kg/m3] | mass density, 303.15 K [kg/m3] | viscosity, 293.15 K [mPa·s] | viscosity, 298.15 K [mPa·s] | viscosity, 303.15 K [mPa·s] | viscosity, 308.15 K [mPa·s]
x1 = 0.0807 | 834.5 | 830.9 | 827.4 | 12.23 | 10 | 8.39 | 7.09
x1 = 0.1613 | 840 | 836.4 | 832.6 | 10.39 | 8.43 | 7.21 | 6.14
x1 = 0.2387 | 845.6 | 841.8 | 838.1 | 8.73 | 7.18 | 6.19 | 5.38
x1 = 0.3519 | 855.1 | 851 | 847.2 | 6.64 | 5.67 | 4.87 | 4.37
x1 = 0.4407 | 863.4 | 859.2 | 855.2 | 5.35 | 4.69 | 4.04 | 3.69
x1 = 0.5568 | 875.9 | 871.4 | 867.3 | 3.94 | 3.56 | 3.16 | 2.94
x1 = 0.6517 | 887.7 | 883 | 878.7 | 3.08 | 2.87 | 2.6 | 2.45
x1 = 0.7412 | 900.4 | 895.4 | 891 | 2.54 | 2.43 | 2.23 | 2.11
x1 = 0.8518 | 918.6 | 913.3 | 908.7 | 2.22 | 2.13 | 1.97 | 1.84
x1 = 0.9441 | 936.5 | 930.9 | 926.1 | 2.17 | 2.08 | 1.89 | 1.73
x1 = 1 | 948.8 | 943.1 | 938.2 | 2.3 | 2.09 | 1.91 | 1.75
